Reference: ChEMBL document CHEMBL3885861, “Open TG-GATES”

Species: Rattus norvegicus
Test: Open TG-GATES - Regimen: Daily Repeat
Assay type: toxicity, organism-based, Sprague-Dawley
Parameters: regimen Daily Repeat, gender Male, age 6 weeks
Settings: in vivo, po, 2000 mg/kg, route gavage, dose level High; for APTT / Bas / Eos / Fbg / Hb / Ht / Lym / MCH / MCHC / MCV / Mono / Neu / PT / Plat / RBC / Ret / WBC: tissue Blood; for KIDNEY_L / KIDNEY_R / KIDNEY_TOTAL: tissue Kidney; for LIVER: tissue Liver; for A/G / ALP / ALT / AST / BUN / CRE / Ca / Cl / DBIL / GLC / IP / K / LDH / Na / PL / RALB / TBIL / TC / TG / TP / gamma-GTP: tissue Plasma

`COc1ccc(O)c(C(C)(C)C)c1.COc1ccc(O)cc1C(C)(C)C` [BUTYLATED HYDROXYANISOLE] showed a TERMINAL_BW (72 h, time 3 day) of 199.9 g, an APTT (72 h, time 3 day) of 18.9 s and a Bas (72 h, time 3 day) of 0.2%. It also gave an Eos (72 h, time 3 day) of 0.7%, a Fbg (72 h, time 3 day) of 288 mg/dL and a Hb (72 h, time 3 day) of 13.9 g/dL. It also gave a Ht (72 h, time 3 day) of 40.3%, a Lym (72 h, time 3 day) of 78.1% and an MCH (72 h, time 3 day) of 20.7 pg. The MCHC (72 h, time 3 day) was 34.6%, the MCV (72 h, time 3 day) was 59.8 fL and the Mono (72 h, time 3 day) was 2.8%. It also gave a Neu (72 h, time 3 day) of 17.5%, a PT (72 h, time 3 day) of 11.8 s and a Plat (72 h, time 3 day) of 152.4 x10_4/uL. It also gave an RBC (72 h, time 3 day) of 673.2 x10_4/ul, a Ret (72 h, time 3 day) of 2.1% and a WBC (72 h, time 3 day) of 93.2 x10_2/uL. It also gave a KIDNEY_L (72 h, time 3 day) of 0.9 g, a KIDNEY_R (72 h, time 3 day) of 0.9 g and a KIDNEY_TOTAL (72 h, time 3 day) of 1.8 g. It also gave an LIVER (72 h, time 3 day) of 12.3 g, an A/G (72 h, time 3 day) of 0.8 and an ALP (72 h, time 3 day) of 1414.4 IU/L. The ALT (72 h, time 3 day) was 69.4 IU/L, the AST (72 h, time 3 day) was 76.4 IU/L and the BUN (72 h, time 3 day) was 14.2 mg/dL. For the same molecule, the CRE (72 h, time 3 day) was 0.2 mg/dL, the Ca (72 h, time 3 day) was 10.9 mg/dL and the Cl (72 h, time 3 day) was 108.2 meq/L. It also gave a DBIL (72 h, time 3 day) of 0.036 mg/dL, a GLC (72 h, time 3 day) of 152 mg/dL and an IP (72 h, time 3 day) of 5.5 mg/dL. For the same molecule, the K (72 h, time 3 day) was 3.6 meq/L, the LDH (72 h, time 3 day) was 70.2 IU/L and the Na (72 h, time 3 day) was 143 meq/L. For the same molecule, the PL (72 h, time 3 day) was 197 mg/dL, the RALB (72 h, time 3 day) was 2.5 g/dL and the TBIL (72 h, time 3 day) was 0.09 mg/dL. For the same molecule, the TC (72 h, time 3 day) was 113 mg/dL, the TG (72 h, time 3 day) was 106.4 mg/dL and the TP (72 h, time 3 day) was 5.5 g/dL. The gamma-GTP (72 h, time 3 day) was 2.8 IU/L, the TERMINAL_BW ([…], time 7 day) was 225.2 g and the TERMINAL_BW ([…], time 14 day) was 262.1 g. For the same molecule, the TERMINAL_BW ([…], time 28 day) was 342.7 g, the APTT ([…], time 7 day) was 15.8 s and the Bas ([…], time 7 day) was 0.3%. For the same molecule, the Eos ([…], time 7 day) was 0.5%, the Fbg ([…], time 7 day) was 316.8 mg/dL and the Hb ([…], time 7 day) was 13.2 g/dL. For the same molecule, the Ht ([…], time 7 day) was 38.2%, the Lym ([…], time 7 day) was 76.9% and the MCH ([…], time 7 day) was 20.2 pg. The MCHC ([…], time 7 day) was 34.6%, the MCV ([…], time 7 day) was 58.3 fL and the Mono ([…], time 7 day) was 3.4%. It also gave a Neu ([…], time 7 day) of 18.2%, a PT ([…], time 7 day) of 11.6 s and a Plat ([…], time 7 day) of 176.3 x10_4/uL. The RBC ([…], time 7 day) was 655.8 x10_4/ul, the Ret ([…], time 7 day) was 4.1% and the WBC ([…], time 7 day) was 146.4 x10_2/uL. It also gave an APTT ([…], time 14 day) of 18.4 s, a Bas ([…], time 14 day) of 0.2% and an Eos ([…], time 14 day) of 0.6%. The Fbg ([…], time 14 day) was 295.6 mg/dL, the Hb ([…], time 14 day) was 13.6 g/dL and the Ht ([…], time 14 day) was 39.4%. It also gave a Lym ([…], time 14 day) of 71.9%, an MCH ([…], time 14 day) of 19.7 pg and an MCHC ([…], time 14 day) of 34.6%. It also gave an MCV ([…], time 14 day) of 56.9 fL, a Mono ([…], time 14 day) of 2.6% and a Neu ([…], time 14 day) of 23.8%. For the same molecule, the PT ([…], time 14 day) was 12.1 s, the Plat ([…], time 14 day) was 130.9 x10_4/uL and the RBC ([…], time 14 day) was 693.8 x10_4/ul. For the same molecule, the Ret ([…], time 14 day) was 3.8%, the WBC ([…], time 14 day) was 103.7 x10_2/uL and the APTT ([…], time 28 day) was 22.8 s. It also gave a Bas ([…], time 28 day) of 0.4%, an Eos ([…], time 28 day) of 0.7% and a Fbg ([…], time 28 day) of 317.2 mg/dL. The Hb ([…], time 28 day) was 14.7 g/dL, the Ht ([…], time 28 day) was 41.8% and the Lym ([…], time 28 day) was 75.1%. It also gave an MCH ([…], time 28 day) of 19 pg, an MCHC ([…], time 28 day) of 35.3% and an MCV ([…], time 28 day) of 53.8 fL. The Mono ([…], time 28 day) was 2.1%, the Neu ([…], time 28 day) was 21% and the PT ([…], time 28 day) was 12.5 s. The Plat ([…], time 28 day) was 129.2 x10_4/uL, the RBC ([…], time 28 day) was 778.2 x10_4/ul and the Ret ([…], time 28 day) was 2.2%. It also gave a WBC ([…], time 28 day) of 110.2 x10_2/uL, a KIDNEY_L ([…], time 7 day) of 0.9 g and a KIDNEY_R ([…], time 7 day) of 0.9 g. For the same molecule, the KIDNEY_TOTAL ([…], time 7 day) was 1.8 g, the KIDNEY_L ([…], time 14 day) was 1 g and the KIDNEY_R ([…], time 14 day) was 1 g. The KIDNEY_TOTAL ([…], time 14 day) was 2 g, the KIDNEY_L ([…], time 28 day) was 1.2 g and the KIDNEY_R ([…], time 28 day) was 1.2 g. For the same molecule, the KIDNEY_TOTAL ([…], time 28 day) was 2.4 g, the LIVER ([…], time 7 day) was 12.6 g and the LIVER ([…], time 14 day) was 15.3 g. The LIVER ([…], time 28 day) was 19.6 g, the A/G ([…], time 7 day) was 0.8 and the ALP ([…], time 7 day) was 797 IU/L. The ALT ([…], time 7 day) was 44.8 IU/L, the AST ([…], time 7 day) was 61.2 IU/L and the BUN ([…], time 7 day) was 17 mg/dL. For the same molecule, the CRE ([…], time 7 day) was 0.2 mg/dL, the Ca ([…], time 7 day) was 11.5 mg/dL and the Cl ([…], time 7 day) was 105.4 meq/L. It also gave a DBIL ([…], time 7 day) of 0.032 mg/dL, a GLC ([…], time 7 day) of 157 mg/dL and an IP ([…], time 7 day) of 7.7 mg/dL. The K ([…], time 7 day) was 3.4 meq/L, the LDH ([…], time 7 day) was 62.8 IU/L and the Na ([…], time 7 day) was 143.8 meq/L. For the same molecule, the PL ([…], time 7 day) was 180 mg/dL, the RALB ([…], time 7 day) was 2.7 g/dL and the TBIL ([…], time 7 day) was 0.066 mg/dL. It also gave a TC ([…], time 7 day) of 102.6 mg/dL, a TG ([…], time 7 day) of 97.2 mg/dL and a TP ([…], time 7 day) of 6.1 g/dL. The gamma-GTP ([…], time 7 day) was 2.4 IU/L, the A/G ([…], time 14 day) was 0.8 and the ALP ([…], time 14 day) was 1011.2 IU/L. The ALT ([…], time 14 day) was 39.4 IU/L, the AST ([…], time 14 day) was 59.2 IU/L and the BUN ([…], time 14 day) was 18.4 mg/dL. The CRE ([…], time 14 day) was 0.2 mg/dL, the Ca ([…], time 14 day) was 11.2 mg/dL and the Cl ([…], time 14 day) was 105.6 meq/L. The DBIL ([…], time 14 day) was 0.026 mg/dL, the GLC ([…], time 14 day) was 159.8 mg/dL and the IP ([…], time 14 day) was 6.2 mg/dL. The K ([…], time 14 day) was 3.4 meq/L, the LDH ([…], time 14 day) was 43.6 IU/L and the Na ([…], time 14 day) was 144.8 meq/L. For the same molecule, the PL ([…], time 14 day) was 204.4 mg/dL, the RALB ([…], time 14 day) was 2.8 g/dL and the TBIL ([…], time 14 day) was 0.062 mg/dL. For the same molecule, the TC ([…], time 14 day) was 108 mg/dL, the TG ([…], time 14 day) was 153.6 mg/dL and the TP ([…], time 14 day) was 6.2 g/dL. For the same molecule, the gamma-GTP ([…], time 14 day) was 3 IU/L, the A/G ([…], time 28 day) was 0.7 and the ALP ([…], time 28 day) was 696 IU/L. For the same molecule, the ALT ([…], time 28 day) was 36.6 IU/L, the AST ([…], time 28 day) was 58 IU/L and the BUN ([…], time 28 day) was 19.8 mg/dL. The CRE ([…], time 28 day) was 0.2 mg/dL, the Ca ([…], time 28 day) was 11.3 mg/dL and the Cl ([…], time 28 day) was 104.8 meq/L. The DBIL ([…], time 28 day) was 0.022 mg/dL, the GLC ([…], time 28 day) was 174.8 mg/dL and the IP ([…], time 28 day) was 5.6 mg/dL. It also gave a K ([…], time 28 day) of 3.5 meq/L, an LDH ([…], time 28 day) of 58.2 IU/L and a Na ([…], time 28 day) of 145.8 meq/L. It also gave a PL ([…], time 28 day) of 198.8 mg/dL, an RALB ([…], time 28 day) of 2.8 g/dL and a TBIL ([…], time 28 day) of 0.068 mg/dL. It also gave a TC ([…], time 28 day) of 109 mg/dL, a TG ([…], time 28 day) of 121 mg/dL and a TP ([…], time 28 day) of 6.6 g/dL. It also gave a gamma-GTP ([…], time 28 day) of 2.6 IU/L.
